# Results as given in patent publication US7105564B1, “Pharmaceutical composition comprising a dual antagonist against PGD2/TXA2 receptors having a [2.2.1] or [3.1.1] bicyclic skeleton” (Shionogi & Co., Ltd., priority 1999, dated 2006).
# Legend:
# TXA2 receptor = biological target: T1, TXA2 receptor (Homo sapiens, UniProt P21731); assay: Binding activity to TXA2 receptor in human platelet membrane fraction ([3H](+)-S-145 sodium salt); details: 2 nM [3H](+)-S-145 sodium salt, room temperature, 90 min; read-out: Binding activity to TXA2 receptor in human platelet membrane fraction IC50
# T1 construct: The human platelet membrane fraction was prepared in accordance with Experiment 1 (1); from tissue; host or cells: human platelet membrane fraction from blood of healthy volunteers
# T1 sequence (P21731 1-343): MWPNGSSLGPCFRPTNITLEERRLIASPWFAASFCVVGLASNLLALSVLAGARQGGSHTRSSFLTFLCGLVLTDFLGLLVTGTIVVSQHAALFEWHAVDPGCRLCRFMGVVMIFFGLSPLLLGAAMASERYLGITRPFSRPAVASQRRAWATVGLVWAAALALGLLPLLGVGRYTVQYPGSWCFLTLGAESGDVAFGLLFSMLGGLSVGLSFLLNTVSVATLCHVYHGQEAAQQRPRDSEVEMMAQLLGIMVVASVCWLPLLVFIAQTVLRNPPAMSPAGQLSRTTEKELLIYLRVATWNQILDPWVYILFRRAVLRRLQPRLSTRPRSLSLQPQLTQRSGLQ
# Method: Experiment 2 Binding activity to TXA2 Receptor
# (§1) (1) Preparation of Human Platelet Membrane Fraction
# The human platelet membrane fraction was prepared in accordance with Experiment 1 (1).
# (2) Binding to TXA2 Receptor
# To a binding-reaction solution (50 mM Tris/HCl, pH 7.4, 10 mM MgCl2) (0.2 ml) were added the human platelet membrane fraction (0.05 mg) and 2 nM Sodium [^3H](+)-(5Z)-7- [3-endo- [(phenylsulfonyl)amino]bicyclo[2.2.1]hept-2-exo-yl]heptenoate (Japanese Patent Publication (Kokoku) No.79060/1993, hereinafter referred to as (+)—S—145 sodium salt) (26.4 Ci/mmol), and the mixture was reacted at room temperature for 90 min. After the reaction, the resultant mixture was filtered through a glass fiber filter paper and washed several times with cooled physiological saline, then the radioactivity retained on the filter paper was measured. The specific-binding ratio was calculated by subtracting the non-specific binding ratio (the radio activity similarly determined in the presence of 10 μM (+)—S—145 sodium salt) from the total binding.
# PGD2 receptor [1] = biological target: T2, PGD2 receptor (Homo sapiens, UniProt Q13258); assay: Binding activity to PGD2 receptor in human platelet membrane fraction ([3H]PGD2); set-up: The platelets were homogenized using a homogenizer (Ultra-Turrax) followed by centrifugation 3 times at 20,000 rpm; from tissue; host or cells: human platelet membrane fraction from blood of healthy volunteers; details: 5 nM [3H]PGD2, 4° C., 90 min; read-out: Binding activity to PGD2 receptor in human platelet membrane fraction IC50
# T2 sequence (Q13258 1-359): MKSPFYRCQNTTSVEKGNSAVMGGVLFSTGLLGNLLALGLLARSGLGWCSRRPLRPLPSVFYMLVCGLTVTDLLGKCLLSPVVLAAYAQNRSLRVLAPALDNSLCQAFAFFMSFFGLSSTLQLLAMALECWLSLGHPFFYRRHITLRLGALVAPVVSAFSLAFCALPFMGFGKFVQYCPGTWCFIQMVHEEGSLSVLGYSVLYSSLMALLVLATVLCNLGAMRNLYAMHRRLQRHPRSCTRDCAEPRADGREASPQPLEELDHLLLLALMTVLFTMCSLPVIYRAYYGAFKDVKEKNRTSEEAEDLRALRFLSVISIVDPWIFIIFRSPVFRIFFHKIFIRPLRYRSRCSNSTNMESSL
# Method: Experiment 1 Binding activity to PGD2 Receptor
# as §1
# Blood was collected using a plastic syringe containing 3.8% sodium citrate from the vein of healthy volunteers (adult male and female), then put into a plastic test tube and mixed by slow-reversion. The sample was then centrifuged at 1800 rpm, for 10 min at room temperature, and the supernatant containing PRP (platelet-rich plasma) was collected. The PRP was recentrifuged at 2300 rpm, for 22 min at room temperature to obtain platelets. The platelets were homogenized using a homogenizer (Ultra-Turrax) followed by centrifugation 3 times at 20,000 rpm, 10 min at 4° C.. to obtain a platelet membrane fraction. After protein determination, the membrane fraction was adjusted to 2 mg/ml and preserved in a refrigerator at −80° C.. until using for the binding test.
# (2) Binding to PGD2 Receptor
# To a binding-reaction solution (50 mM Tris/HCl, pH 7.4, 5 mM MgCl2) (0.2 ml) were added the human platelet membrane fraction (0.1 mg) and 5 nM [^3H]PGD2 (115 Ci/mmol), and the mixture was reacted at 4° C. for 90 min. After the reaction, the mixture was filtered through a glass fiber filter paper and washed several times with cooled physiological saline, then the radioactivity retained on the filter paper was measured. The specific-binding ratio was calculated by subtracting the non-specific binding ratio which is the radioactivity similarly measured in the presence of 10 μM PGD2 from the total binding.
# PGD2 receptor [2] = biological target: T2, PGD2 receptor; assay: Antagonistic activity against PGD2 receptor using human platelet (inhibition of cAMP increase caused by PGD2); assay type: cell-based; details: 0.1 μM PGD2; read-out: Inhibitory activity for the increase of cAMP caused by PGD2 in human platelet IC50
# Method: Experiment 3 Evaluation of Antagonistic Activity Against PGD2 Receptor Using Human Platelet
# Peripheral blood was collected from a healthy volunteer using a syringe in which 1/9 volume of a citric acid/dextrose solution was previously added. The sample was subjected to centrifugation at 180 g for 10 min to obtain the supernatant (PRP: platelet rich plasma). The resultant PRP was washed 3 times with a washing buffer and the number of platelets was counted with a micro cell counter. A suspension adjusted to contain the platelets at a final concentration of 5×10^8/ml was warmed at 37° C., then subjected to the pre-treatment with 3-isobutyl-1-methylxanthine (0.5 mM) for 5 min. To the suspension was added a test compound diluted at various concentration, and 10 minutes later, 0.1 μM PGD2 was added to induce the reaction 2 minutes later, hydrochloric acid was added to terminate the reaction. The platelet was destroyed with an ultrasonic homogenizer. After centrifugation, the cAMP in the supernatant was determined by radioimmunoassay. PGD2 receptor antagonism of a drug was evaluated as follows: the inhibition rate regarding cAMP increased by the addition of PGD2 was determined at each concentration, and the concentration of the drug required for 50% inhibition (IC50) was calculated.
structure (smiles),measurement,setting,value
O=C(O)CCCC=CCC1C2CCC(C2)C1NC(=O)c1ccc(SCc2cccs2)s1 (stereo not drawn) [Compound I-106],IC50,TXA2 receptor,13 nM
same,IC50,PGD2 receptor [1],13 nM
same,IC50,PGD2 receptor [2],9.3 nM
Cc1ccc(Cc2ccc(C(=O)NC3C4CCC(C4)C3CC=CCCCC(=O)O)s2)s1 (stereo not drawn) [Compound I-129],IC50,TXA2 receptor,52 nM
same,IC50,PGD2 receptor [1],11 nM
same,IC50,PGD2 receptor [2],22 nM
O=C(O)CCCC=CCC1C2CCC(C2)C1NC(=O)c1ccc(Cc2cc3ccccc3o2)s1 (stereo not drawn) [Compound I-136],IC50,TXA2 receptor,16 nM
same,IC50,PGD2 receptor [1],23 nM
same,IC50,PGD2 receptor [2],15 nM
O=C(O)CCCC=CCC1C2CCC(C2)C1NC(=O)c1csc2c(Cc3cccs3)cccc12 (stereo not drawn) [Compound I-168],IC50,TXA2 receptor,34 nM
same,IC50,PGD2 receptor [1],0.46 nM
same,IC50,PGD2 receptor [2],29 nM
O=C(O)CCCC=CCC1C2CCC(C2)C1NC(=O)c1csc2c(Cc3ccsc3)cccc12 (stereo not drawn) [Compound I-169],IC50,TXA2 receptor,32 nM
same,IC50,PGD2 receptor [1],0.61 nM
same,IC50,PGD2 receptor [2],26 nM
O=C(O)CCCC=CCC1C2CCC(C2)C1NC(=O)c1ccc(Cc2csc3ccccc23)s1 (stereo not drawn) [Compound I-182],IC50,TXA2 receptor,28 nM
same,IC50,PGD2 receptor [1],61 nM
same,IC50,PGD2 receptor [2],11 nM
CC1(C)C2CC(CC=CCCCC(=O)O)C(NC(=O)c3ccc(S(=O)(=O)n4cccc4)s3)C1C2 (stereo not drawn) [II-15],IC50,TXA2 receptor,12 nM
same,IC50,PGD2 receptor [1],2 nM
same,IC50,PGD2 receptor [2],11 nM
CC1(C)C2CC(CC=CCCCC(=O)O)C(NC(=O)c3ccc(S(=O)(=O)c4cccs4)s3)C1C2 (stereo not drawn) [II-18],IC50,TXA2 receptor,3.6 nM
same,IC50,PGD2 receptor [1],0.96 nM
same,IC50,PGD2 receptor [2],4 nM
CC1(C)C2CC(CC=CCCCC(=O)O)C(NC(=O)c3ccc(Sc4cccs4)s3)C1C2 (stereo not drawn) [II-21],IC50,TXA2 receptor,14 nM
same,IC50,PGD2 receptor [1],0.1 nM
same,IC50,PGD2 receptor [2],24 nM
Cc1cc(S(=O)(=O)c2ccc(C(=O)NC3C(CC=CCCCC(=O)O)CC4CC3C4(C)C)s2)cs1 (stereo not drawn) [II-30],IC50,TXA2 receptor,4 nM
same,IC50,PGD2 receptor [1],72 nM
same,IC50,PGD2 receptor [2],45 nM
Cc1cccn1S(=O)(=O)c1ccc(C(=O)NC2C(CC=CCCCC(=O)O)CC3CC2C3(C)C)s1 (stereo not drawn) [II-34],IC50,TXA2 receptor,4.4 nM
same,IC50,PGD2 receptor [1],1.5 nM
same,IC50,PGD2 receptor [2],3.9 nM
